Measurements from US11304926B2, “Application of transient receptor potential cation channel TRPV3 in developing drug for preventing or treating psoriasis” (CHINA PHARMACEUTICAL UNIVERSITY, priority 2019, dated 2022).
Entries after “also recorded” stand apart in the source; their conditions may differ.

Tests used:
[1] = tested on: mouse psoriasis model induced by 5% IMQ; experiment: Histopathological examination (HE staining, epidermal thickness) of mouse psoriasis model under drug intervention; format: in vivo; details: subcutaneous injection, 5% IMQ model
Source text: After sacrifice of the mice, skin tissues were collected, fixed with 10% (mass fraction) paraformaldehyde solution, embedded in paraffin, and then subjected to 3 μm slicing and HE staining. An Eclipse Ti inverted microscope (Nikon Corporation, Tokyo, Japan) was used to observe and take a photo at 400-times magnification, and NIS-element BR software (Nikon Corporation, Tokyo, Japan) was used to measure an epidermal thickness of the skin. Six fields of view were randomly selected for each section. […] It should be noted that measurement data was represented by mean±standard deviation (mean±SD), and was detected by One-Way ANOVA, wherein ** represented that P<0.01, which was relative to the vaseline group.

[2] = target: T1, mTRPV3 (Mus musculus, UniProt Q8K424); experiment: Whole-cell patch clamp of 2-APB induced current in mTRPV3-HEK-293 cells; format: cell-based
T1 construct: expressed in transfected cells
T1 sequence (Q8K424 1-791): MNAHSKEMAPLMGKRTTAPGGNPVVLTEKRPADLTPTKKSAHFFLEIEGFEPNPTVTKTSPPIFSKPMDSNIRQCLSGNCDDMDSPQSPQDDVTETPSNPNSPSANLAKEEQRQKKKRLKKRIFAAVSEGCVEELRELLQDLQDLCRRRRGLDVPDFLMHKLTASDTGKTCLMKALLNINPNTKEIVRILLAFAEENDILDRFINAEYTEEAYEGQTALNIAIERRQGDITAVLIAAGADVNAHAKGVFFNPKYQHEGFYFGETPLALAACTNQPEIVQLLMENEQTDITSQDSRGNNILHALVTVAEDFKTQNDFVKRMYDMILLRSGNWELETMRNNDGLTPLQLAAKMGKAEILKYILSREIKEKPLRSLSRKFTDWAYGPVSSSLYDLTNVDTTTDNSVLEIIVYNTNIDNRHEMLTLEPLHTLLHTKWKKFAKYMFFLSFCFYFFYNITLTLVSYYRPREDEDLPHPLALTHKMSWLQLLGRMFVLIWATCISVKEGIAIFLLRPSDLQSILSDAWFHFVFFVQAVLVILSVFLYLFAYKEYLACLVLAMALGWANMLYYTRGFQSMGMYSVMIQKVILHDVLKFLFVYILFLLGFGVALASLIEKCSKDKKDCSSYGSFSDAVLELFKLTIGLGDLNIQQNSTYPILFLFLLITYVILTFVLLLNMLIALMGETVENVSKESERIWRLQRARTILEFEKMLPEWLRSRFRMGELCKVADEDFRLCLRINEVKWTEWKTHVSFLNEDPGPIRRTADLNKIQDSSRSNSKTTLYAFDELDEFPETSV
Experimental: mTRPV3 plasmids were donated by Professor Jie Zheng from UC Davis. Transfection steps were as follows: HEK-293 cells with a confluence ranging from 70% to 80% and a good growth state were seeded into T-60 small dishes the day before transfection, each small dish contained 4×10^5 cells, and the cells were cultured without penicillin/streptomycin overnight at 37° C. in 5% CO2. 10 μL of plasmids (plasmid concentration was 1000 ng/μL) were diluted with 250 μl of DMEM (article number: 12800017, Gibco), and meanwhile, 10 μL of Lipofectamine 2000 (article number: 11668027, Gibco) was diluted into 250 μL of DMEM. […] Monoclone cells were selected by a limiting dilution method: the screened cells were digested and counted, and seeded into a 96-well plate in sequence at densities of 10^4 cells/well, 10^3 cells/well, 10^2 cells/well, 10 cells/well, and 1 cell/well. Under a fluorescence microscope, wells of separate cells with green fluorescence were labeled, and cells amplified from the wells were HEK-293 cells stably transfecting the mTRPV3. […] HEK-293 cells stably transecting mTRPV3 (mTRPV3-HEK-293) were seeded into T-60 small dishes with a confluence ranging from 20% to 30%, and whole cell current was recorded by a patch clamp amplification system next day. […]

## O=c1cc(-c2ccc(O)cc2)oc2cc(O)c(O)c(O)c12 [Scutellarein]
[1]
  epidermal thickness at lesion part: significantly reduce
  pathological changes of the skin induced by imiquimod: could improve the above pathological changes
[2]; Scutellarein 0.3-30 μM, 2-APB 100 μM, mTRPV3-HEK-293
  inhibition of whole-cell current induced by 2-APB: could inhibit the whole-cell current induced by the 2-APB and had a dose dependence; also recorded: obvious inhibitory effect
[2]; whole-cell patch clamp, mTRPV3-HEK-293, 2-APB 100 μM, nonlinear fitting
  IC50: 1010 nM
